Key:
[1] = molecular target: T1, NAD-dependent protein deacetylase sirtuin-3, mitochondrial (Homo sapiens, UniProt Q9NTG7); assay: Inhibitory activity against recombinant human SIRT3 expressed in Escherichia coli by fluorimetric assay
T1 sequence (Q9NTG7 whole entry): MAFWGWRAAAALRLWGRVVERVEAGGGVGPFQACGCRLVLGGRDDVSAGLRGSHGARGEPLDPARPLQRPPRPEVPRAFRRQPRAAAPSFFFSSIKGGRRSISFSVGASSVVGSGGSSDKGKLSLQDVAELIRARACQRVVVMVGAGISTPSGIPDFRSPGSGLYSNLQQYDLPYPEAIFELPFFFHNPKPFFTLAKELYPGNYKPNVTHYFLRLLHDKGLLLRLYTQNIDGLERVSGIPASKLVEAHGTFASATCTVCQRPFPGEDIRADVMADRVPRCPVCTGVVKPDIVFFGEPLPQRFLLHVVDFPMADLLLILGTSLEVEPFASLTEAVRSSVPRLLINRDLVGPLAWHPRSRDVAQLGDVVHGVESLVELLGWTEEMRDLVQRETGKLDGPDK

[2] = molecular target: T2, NAD-dependent protein deacetylase sirtuin-1 (Homo sapiens, UniProt Q96EB6)
T2 sequence (Q96EB6 whole entry): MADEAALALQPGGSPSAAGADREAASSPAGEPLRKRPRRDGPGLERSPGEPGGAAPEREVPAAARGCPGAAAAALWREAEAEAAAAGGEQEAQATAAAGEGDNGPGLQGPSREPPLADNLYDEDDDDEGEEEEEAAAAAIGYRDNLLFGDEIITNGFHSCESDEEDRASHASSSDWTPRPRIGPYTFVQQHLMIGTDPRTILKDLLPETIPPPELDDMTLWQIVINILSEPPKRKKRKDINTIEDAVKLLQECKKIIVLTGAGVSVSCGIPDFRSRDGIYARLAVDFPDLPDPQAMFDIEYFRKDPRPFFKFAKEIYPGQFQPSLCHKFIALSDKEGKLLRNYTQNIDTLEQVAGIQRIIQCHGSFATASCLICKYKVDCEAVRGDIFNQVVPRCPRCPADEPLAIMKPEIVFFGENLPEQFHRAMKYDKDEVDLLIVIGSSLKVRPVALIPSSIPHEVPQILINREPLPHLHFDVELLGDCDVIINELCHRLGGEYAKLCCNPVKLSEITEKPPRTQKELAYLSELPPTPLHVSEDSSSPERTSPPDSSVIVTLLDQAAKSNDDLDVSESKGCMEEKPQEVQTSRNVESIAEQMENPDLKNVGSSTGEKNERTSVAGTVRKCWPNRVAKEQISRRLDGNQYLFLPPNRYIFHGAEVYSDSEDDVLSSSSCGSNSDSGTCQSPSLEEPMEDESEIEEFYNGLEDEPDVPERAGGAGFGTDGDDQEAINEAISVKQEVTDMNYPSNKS
Description: Inhibitory activity against human SIRT1 by radiochemical Nicotinamide release assay

CYP2D6 = CYP2D6 (Homo sapiens, UniProt P10635); assay: Percent inhibitory activity against human CYP2D6 at 1uM; type: ADME
Chain of CYP2D6 (P10635 whole entry): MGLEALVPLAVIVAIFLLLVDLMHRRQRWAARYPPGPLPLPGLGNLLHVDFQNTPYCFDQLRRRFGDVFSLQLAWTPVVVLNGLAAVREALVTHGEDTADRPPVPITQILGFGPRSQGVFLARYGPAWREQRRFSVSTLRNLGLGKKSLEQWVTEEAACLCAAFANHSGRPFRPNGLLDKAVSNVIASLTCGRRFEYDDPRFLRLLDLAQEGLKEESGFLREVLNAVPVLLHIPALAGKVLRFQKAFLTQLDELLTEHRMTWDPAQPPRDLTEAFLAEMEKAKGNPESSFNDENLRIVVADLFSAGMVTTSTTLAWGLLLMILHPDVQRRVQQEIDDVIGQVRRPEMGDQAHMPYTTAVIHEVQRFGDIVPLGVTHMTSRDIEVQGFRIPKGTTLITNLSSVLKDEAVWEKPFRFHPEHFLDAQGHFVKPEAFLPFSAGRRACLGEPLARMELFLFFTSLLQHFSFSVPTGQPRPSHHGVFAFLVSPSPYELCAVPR

CYP2C19 = CYP2C19 (Homo sapiens, UniProt P33261); assay: Percent inhibitory activity against human CYP2C19 at 1uM; type: ADME
Chain of CYP2C19 (P33261 whole entry): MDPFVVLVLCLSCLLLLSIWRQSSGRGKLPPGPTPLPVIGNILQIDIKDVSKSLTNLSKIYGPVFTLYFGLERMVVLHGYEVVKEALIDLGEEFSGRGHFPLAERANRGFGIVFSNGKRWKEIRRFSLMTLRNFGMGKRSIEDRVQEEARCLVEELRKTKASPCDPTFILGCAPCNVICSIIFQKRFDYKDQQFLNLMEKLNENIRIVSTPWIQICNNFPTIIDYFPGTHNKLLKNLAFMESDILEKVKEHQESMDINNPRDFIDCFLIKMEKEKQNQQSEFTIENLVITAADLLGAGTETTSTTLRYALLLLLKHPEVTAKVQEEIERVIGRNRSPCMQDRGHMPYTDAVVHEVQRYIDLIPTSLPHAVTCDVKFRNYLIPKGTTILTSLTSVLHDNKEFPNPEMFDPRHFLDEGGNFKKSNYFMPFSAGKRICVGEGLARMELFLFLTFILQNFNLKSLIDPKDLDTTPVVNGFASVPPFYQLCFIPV

[3] = molecular target: T2, NAD-dependent protein deacetylase sirtuin-1; remark: listed apart in the source
Description: Inhibitory activity against recombinant human SIRT1 expressed in Escherichia coli by fluorimetric assay

Histone deacetylase = assay: Inhibitory activity against human HDAC in HeLa cell extract by fluorimetric assay; type: cell-free
CYP1A2 = molecular target: T3, CYP1A2 (Homo sapiens, UniProt P05177); assay: Percent inhibitory activity against human CYP1A2 at 1uM; type: ADME
T3 sequence (P05177 whole entry): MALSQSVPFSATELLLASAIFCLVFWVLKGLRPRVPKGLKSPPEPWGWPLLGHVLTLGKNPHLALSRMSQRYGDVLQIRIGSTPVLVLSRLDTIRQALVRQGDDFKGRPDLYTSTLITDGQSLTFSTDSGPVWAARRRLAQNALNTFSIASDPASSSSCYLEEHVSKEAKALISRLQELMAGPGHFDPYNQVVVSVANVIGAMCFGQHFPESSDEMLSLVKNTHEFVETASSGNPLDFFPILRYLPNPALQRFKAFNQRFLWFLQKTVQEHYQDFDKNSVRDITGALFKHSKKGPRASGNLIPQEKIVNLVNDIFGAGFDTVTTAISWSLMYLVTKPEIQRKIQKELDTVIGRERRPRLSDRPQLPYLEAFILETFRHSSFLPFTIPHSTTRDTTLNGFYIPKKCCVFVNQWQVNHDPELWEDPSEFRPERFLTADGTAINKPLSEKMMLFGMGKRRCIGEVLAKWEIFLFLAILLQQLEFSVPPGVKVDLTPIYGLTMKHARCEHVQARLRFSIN

[4] = molecular target: T4, NAD-dependent protein deacetylase sirtuin-2 (Homo sapiens, UniProt Q8IXJ6)
T4 sequence (Q8IXJ6 whole entry): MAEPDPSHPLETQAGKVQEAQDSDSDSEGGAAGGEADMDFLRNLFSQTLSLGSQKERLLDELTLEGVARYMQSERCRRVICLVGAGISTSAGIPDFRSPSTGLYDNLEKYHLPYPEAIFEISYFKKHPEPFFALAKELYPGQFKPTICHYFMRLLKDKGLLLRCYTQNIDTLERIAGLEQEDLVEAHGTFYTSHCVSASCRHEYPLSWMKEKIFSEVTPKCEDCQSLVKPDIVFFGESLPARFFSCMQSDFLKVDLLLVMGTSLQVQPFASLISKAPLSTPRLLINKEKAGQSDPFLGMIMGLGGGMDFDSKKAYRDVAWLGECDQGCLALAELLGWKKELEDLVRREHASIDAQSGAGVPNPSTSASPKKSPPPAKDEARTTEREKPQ
Description: Inhibitory activity against recombinant human SIRT2 expressed in Escherichia coli by fluorimetric assay

[5] = molecular target: hERG (KCNH2) potassium channel (Homo sapiens, UniProt Q12809); assay: Percentage inhibitory activity against hERG potassium channel transfected in CHO cells at 10uM; conditions: CHO cells transfected with hERG
Chain of hERG (KCNH2) potassium channel (Q12809 whole entry): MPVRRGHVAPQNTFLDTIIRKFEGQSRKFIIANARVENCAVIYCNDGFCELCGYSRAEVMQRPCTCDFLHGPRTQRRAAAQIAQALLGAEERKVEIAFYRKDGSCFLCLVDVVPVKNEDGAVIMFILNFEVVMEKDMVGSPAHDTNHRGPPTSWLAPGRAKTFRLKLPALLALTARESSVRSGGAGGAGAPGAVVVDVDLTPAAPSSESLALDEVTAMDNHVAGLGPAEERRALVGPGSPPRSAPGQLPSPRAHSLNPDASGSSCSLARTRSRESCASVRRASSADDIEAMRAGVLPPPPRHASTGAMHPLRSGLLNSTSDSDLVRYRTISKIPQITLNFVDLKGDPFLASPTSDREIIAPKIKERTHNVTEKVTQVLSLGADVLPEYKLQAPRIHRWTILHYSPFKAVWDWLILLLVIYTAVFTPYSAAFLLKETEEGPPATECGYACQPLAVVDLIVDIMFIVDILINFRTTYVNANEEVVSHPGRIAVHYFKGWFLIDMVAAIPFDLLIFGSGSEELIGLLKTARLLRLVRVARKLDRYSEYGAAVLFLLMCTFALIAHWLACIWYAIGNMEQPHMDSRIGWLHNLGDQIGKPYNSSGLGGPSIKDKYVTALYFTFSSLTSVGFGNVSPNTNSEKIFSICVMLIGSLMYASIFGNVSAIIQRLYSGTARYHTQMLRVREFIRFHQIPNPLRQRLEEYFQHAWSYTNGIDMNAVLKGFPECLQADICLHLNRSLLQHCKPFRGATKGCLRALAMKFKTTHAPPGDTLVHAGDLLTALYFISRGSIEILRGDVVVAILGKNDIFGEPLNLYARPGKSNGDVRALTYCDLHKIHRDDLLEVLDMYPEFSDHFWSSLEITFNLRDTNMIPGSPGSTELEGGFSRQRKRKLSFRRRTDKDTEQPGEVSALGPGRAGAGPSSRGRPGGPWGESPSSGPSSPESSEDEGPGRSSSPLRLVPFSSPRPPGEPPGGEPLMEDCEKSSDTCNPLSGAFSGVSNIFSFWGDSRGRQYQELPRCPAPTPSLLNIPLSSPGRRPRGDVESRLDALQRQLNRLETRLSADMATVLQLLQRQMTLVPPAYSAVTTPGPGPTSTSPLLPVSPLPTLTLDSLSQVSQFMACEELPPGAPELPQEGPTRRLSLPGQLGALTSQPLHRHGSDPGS

CYP2C9 = CYP2C9 (Homo sapiens, UniProt P11712); assay: Percent inhibitory activity against human CYP2C9 at 1uM; type: ADME
Chain of CYP2C9 (P11712 whole entry): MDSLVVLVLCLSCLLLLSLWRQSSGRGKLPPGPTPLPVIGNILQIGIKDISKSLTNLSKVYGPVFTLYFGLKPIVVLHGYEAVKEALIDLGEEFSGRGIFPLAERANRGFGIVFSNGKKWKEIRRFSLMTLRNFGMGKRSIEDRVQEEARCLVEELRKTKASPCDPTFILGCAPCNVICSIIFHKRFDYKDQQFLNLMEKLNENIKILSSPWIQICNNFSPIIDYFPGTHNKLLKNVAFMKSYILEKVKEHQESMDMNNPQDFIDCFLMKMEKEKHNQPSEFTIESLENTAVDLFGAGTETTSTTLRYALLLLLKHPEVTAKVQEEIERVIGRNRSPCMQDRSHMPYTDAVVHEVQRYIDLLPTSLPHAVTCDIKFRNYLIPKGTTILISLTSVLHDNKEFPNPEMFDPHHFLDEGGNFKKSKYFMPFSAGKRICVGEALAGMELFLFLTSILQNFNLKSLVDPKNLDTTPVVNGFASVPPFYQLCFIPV

CYP3A4 = CYP3A4 (Homo sapiens, UniProt P08684); assay: Percent inhibitory activity against human CYP3A4 at 1uM; type: ADME
Chain of CYP3A4 (P08684 whole entry): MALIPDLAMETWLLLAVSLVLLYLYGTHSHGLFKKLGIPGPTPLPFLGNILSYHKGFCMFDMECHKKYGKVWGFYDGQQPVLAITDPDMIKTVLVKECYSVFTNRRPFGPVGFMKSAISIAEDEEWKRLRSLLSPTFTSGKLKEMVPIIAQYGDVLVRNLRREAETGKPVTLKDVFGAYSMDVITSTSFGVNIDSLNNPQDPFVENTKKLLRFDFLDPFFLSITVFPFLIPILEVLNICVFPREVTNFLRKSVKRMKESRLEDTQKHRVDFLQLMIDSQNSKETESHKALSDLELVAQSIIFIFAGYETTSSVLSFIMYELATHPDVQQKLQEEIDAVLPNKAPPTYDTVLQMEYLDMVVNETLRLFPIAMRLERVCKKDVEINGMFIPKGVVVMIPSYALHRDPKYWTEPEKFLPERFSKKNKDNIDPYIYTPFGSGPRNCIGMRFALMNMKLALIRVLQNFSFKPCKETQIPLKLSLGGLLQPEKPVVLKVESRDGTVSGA

Liver microsomes = assay: Stability in rat liver microsomes at 10 uM; type: ADME, Microsome
[6] = Serum half life in mice administered with 10 mg/kg, po; type: ADME, organism-based; parameters: dose 10 mg/kg, route oral; conditions: C57bl/6J, mouse
[7] = Half life in rat liver microsomes; type: ADME, Microsome

For `Cc1ccc2[nH]c3c(c2c1)CCCC3C(N)=O` (configuration not stated), the IC50 [1] was > 100 µM, the IC50 [2] was 2.5 µM and the inhibition at 1 µM (CYP2D6) was -3%. The inhibition at 1 µM (CYP2C19) was 9%, the IC50 [3] was 0.205 µM and the IC50 (Histone deacetylase) was > 100 µM. For the same molecule, the inhibition at 1 µM (CYP1A2) was 7%, the IC50 [4] was 11.5 µM and the inhibition at 10 µM [5] was 0%. For the same molecule, the inhibition at 1 µM (CYP2C9) was -9% and the inhibition at 1 µM (CYP3A4) was -16%.
With `NC(=O)C1CCCc2c1[nH]c1ccc(Cl)cc21` (configuration not stated) the inhibition at 1 µM (CYP2D6) was -5%, the inhibition at 1 µM (CYP2C19) was 6% and the IC50 (Histone deacetylase) was > 100 µM. The inhibition at 1 µM (CYP1A2) was 11%, the Stability (Liver microsomes) was “Stable” and the half-life [6] was 2.27 h. For the same molecule, the inhibition at 10 µM [5] was 0%, the half-life [7] was > 1 h and the inhibition at 1 µM (CYP2C9) was -5%. It also gave an inhibition at 1 µM (CYP3A4) of -26%.
`CC(=O)N1CCc2c([nH]c3ccc(Cl)cc23)C1C(N)=O` (configuration not stated) showed an IC50 [3] of 79.9 µM.
`NC(=O)C1CCc2c1[nH]c1ccccc21` (configuration not stated) gave an IC50 [3] of 2.67 µM.
For `NC(=O)C1NCCc2c1[nH]c1ccc(Br)cc21` (configuration not stated), the IC50 [3] was > 100 µM.
For `Cc1ccc2c(c1)c1c(n2C)C(C(N)=O)CCC1` (configuration not stated), the IC50 [3] was > 100 µM.
In the case of `CCNC(=O)C1CCCc2c1[nH]c1ccc(Cl)cc21` (configuration not stated), the IC50 [3] is reported as > 100 µM.
`NC(=O)C1NCCc2c1[nH]c1ccc(Cl)cc21` (configuration not stated) showed an IC50 [3] of 18 µM.
For `CCOC(=O)C1CCCc2c1[nH]c1ccc(Cl)cc21` (configuration not stated), the IC50 [3] was > 100 µM.
With `O=C(NO)C1CCCc2c1[nH]c1ccc(Cl)cc21` (configuration not stated) the IC50 [3] was 77.6 µM.
In the case of `O=C(O)C1CCCc2c1[nH]c1ccc(Cl)cc21` (configuration not stated), the IC50 [3] is reported as > 100 µM.
Work on `NC(=O)C1CCc2c([nH]c3ccc(Cl)cc23)C1` (configuration not stated) yielded an IC50 [3] of 34.5 µM.
In the case of `NC(=O)C1CCc2c([nH]c3ccc(Br)cc23)C1` (configuration not stated), the IC50 [3] is reported as 2.44 µM.
With `Cc1ccc2[nH]c3c(c2c1)CCCC3(C)C(N)=O` (configuration not stated) the IC50 [3] was 13 µM.
In the case of `NC(=O)CNC(=O)C1CCCc2c1[nH]c1ccc(Cl)cc21` (configuration not stated), the IC50 [3] is reported as > 100 µM.
`NC(=O)C1CCc2c1[nH]c1ccc(Cl)cc21` (configuration not stated) gave an IC50 [3] of 0.409 µM.
For `CCN(CC)C(=O)C1CCCc2c1[nH]c1ccc(Cl)cc21` (configuration not stated), the IC50 [3] was > 100 µM.
For `NC(=O)C1CCCc2c1[nH]c1ccc(O)cc21` (configuration not stated), the IC50 [3] was 15 µM.
With `NC(=O)C1CCCCc2c1[nH]c1ccc(Cl)cc21` (configuration not stated) the IC50 [1] was > 100 µM, the inhibition at 1 µM (CYP2D6) was 3% and the inhibition at 1 µM (CYP2C19) was 23%. For the same molecule, the IC50 (Histone deacetylase) was > 100 µM, the inhibition at 1 µM (CYP1A2) was 23% and the Stability (Liver microsomes) was “Stable”. For the same molecule, the half-life [6] was 1.57 h, the half-life [7] was > 1 h and the inhibition at 1 µM (CYP2C9) was 11%. For the same molecule, the inhibition at 1 µM (CYP3A4) was -12%.
For `NC(=O)C1CCCc2c1[nH]c1ccccc21` (configuration not stated), the IC50 [1] was > 100 µM, the inhibition at 1 µM (CYP2D6) was -4% and the inhibition at 1 µM (CYP2C19) was 5%. The IC50 (Histone deacetylase) was > 100 µM, the inhibition at 1 µM (CYP1A2) was 4% and the IC50 [4] was 24.8 µM. For the same molecule, the inhibition at 10 µM [5] was 0%, the inhibition at 1 µM (CYP2C9) was -8% and the inhibition at 1 µM (CYP3A4) was -22%.
For `Cc1ccc2[nH]c3c(c2c1)CCCC3CN` (configuration not stated), the IC50 [3] was > 100 µM.

Source: ChEMBL document CHEMBL1140425, “Discovery of indoles as potent and selective inhibitors of the deacetylase SIRT1” (J Med Chem, 2005)
